Values quoted from earlier work in patent US11672759B2 (priority 2017, dated 2023).

Settings: estimated

COc1cc2c(c(OC)c1OC)-c1ccc(OC)c(=O)cc1[C@@H](NC(C)=O)CC2 [colchicine, N-((7S)-5,6,7,9-tetrahydro-1,2,3,10-tetramethoxy-9-oxobenzo(a)heptalen-7-yl)-acetamide]
effective dose: approximately 0.015 mg/kg | toxic dose: greater than 0.1 mg/kg | typically lethal dose: approximately 0.8 mg/kg
